Source: ChEMBL document CHEMBL1157148, “Synthesis of eudistomin D analogues and its effects on adenosine receptors” (Bioorg Med Chem, 2008)

Columns and labels:
Adenosine receptor A1 = molecular target: T1, Adenosine receptor A1 (Homo sapiens, UniProt P30542); experiment: Displacement of [3H]DPCPX from human recombinant adenosine A1 receptor expressed in HEK293T cells; type: cell-based, HEK-293T
T1 sequence (P30542 whole entry): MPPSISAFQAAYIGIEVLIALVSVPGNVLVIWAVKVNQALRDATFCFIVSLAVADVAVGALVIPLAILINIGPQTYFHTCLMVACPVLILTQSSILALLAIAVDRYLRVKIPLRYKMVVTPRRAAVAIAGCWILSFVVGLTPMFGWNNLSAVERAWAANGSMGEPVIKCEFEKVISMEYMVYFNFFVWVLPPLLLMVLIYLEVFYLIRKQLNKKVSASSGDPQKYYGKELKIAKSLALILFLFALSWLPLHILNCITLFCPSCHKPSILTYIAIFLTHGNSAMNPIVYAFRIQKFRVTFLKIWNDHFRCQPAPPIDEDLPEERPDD

Adenosine receptor A3 = molecular target: T2, Adenosine receptor A3 (Homo sapiens, UniProt P0DMS8); experiment: Displacement of [3H]NECA from human recombinant adenosine A3 receptor expressed in HEK293T cells; type: cell-based, HEK-293T
T2 sequence (P0DMS8 whole entry): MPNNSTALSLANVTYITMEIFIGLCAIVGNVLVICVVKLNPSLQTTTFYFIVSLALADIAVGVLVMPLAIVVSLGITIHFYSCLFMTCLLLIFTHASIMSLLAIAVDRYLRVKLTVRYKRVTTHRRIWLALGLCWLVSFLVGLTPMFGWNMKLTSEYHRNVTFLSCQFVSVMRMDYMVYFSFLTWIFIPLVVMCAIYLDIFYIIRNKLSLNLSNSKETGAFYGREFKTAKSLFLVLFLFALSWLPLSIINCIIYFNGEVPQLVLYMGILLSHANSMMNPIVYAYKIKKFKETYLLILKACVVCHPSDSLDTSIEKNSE

Adenosine receptor A2a = Adenosine receptor A2a (Homo sapiens, UniProt P29274); experiment: biochemical
Adenosine receptor A2a, sequence (P29274 whole entry): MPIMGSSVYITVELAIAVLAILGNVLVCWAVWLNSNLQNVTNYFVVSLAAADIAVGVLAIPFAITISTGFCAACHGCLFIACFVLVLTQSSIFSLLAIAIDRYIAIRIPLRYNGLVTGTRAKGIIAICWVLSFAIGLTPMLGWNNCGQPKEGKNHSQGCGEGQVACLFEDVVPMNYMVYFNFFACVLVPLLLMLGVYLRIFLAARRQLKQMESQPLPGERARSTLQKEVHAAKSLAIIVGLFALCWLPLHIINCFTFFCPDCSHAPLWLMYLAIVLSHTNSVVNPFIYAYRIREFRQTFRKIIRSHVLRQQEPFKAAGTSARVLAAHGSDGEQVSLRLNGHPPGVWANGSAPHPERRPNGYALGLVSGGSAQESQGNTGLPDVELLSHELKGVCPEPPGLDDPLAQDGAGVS
Description: Displacement of [3H]CGS21680 from human recombinant adenosine A2A receptor expressed in HEK293T cells

Row | SMILES | Ki (Adenosine receptor A1) | Ki (Adenosine receptor A3) | Ki (Adenosine receptor A2a)
1 | Cc1cc2[nH]c3c[n+](C)ccc3c2c(C)c1O | > 100 µM | 29.7 µM | > 100 µM
2 | Cc1cc2c(c(C)c1O)c1cc[n+](C)cc1n2C | > 100 µM | > 100 µM | > 100 µM
3 | Cc1cc2[nH]c3cnccc3c2c(C)c1O | > 100 µM | 17.7 µM | > 100 µM

The remaining lines, values ahead:

Row | Ki (Adenosine receptor A1) | Ki (Adenosine receptor A3) | Ki (Adenosine receptor A2a) | SMILES
4 | > 100 µM | 43.4 µM | 80.6 µM | Cc1cc2c(c(C)c1O)c1ccncc1n2C
5 | > 100 µM | 4.43 µM | 24.9 µM | Cc1cc2[nH]c3cccnc3c2c(C)c1O
6 | > 100 µM | 13.3 µM | 44.1 µM | Cc1cc2c(c(C)c1O)c1ncccc1n2C
